Reference: patent US12233177B2, “Method for external sterilization of drug delivery device” (AMGEN INC., priority 2019, dated 2025)

Tested on: Geobacillus stearothermophilus
Test: Lethality study of NO2 external sterilization on spiked pre-filled syringes
Assay type: cell-based
Procedure: At least some of the backstops illustrated in the figures were tested in a lethality study. For example, pre-filled syringes were “spiked” with between 1×10^6 and 6×10^6 CFU (e.g., between 1,000,000 and 6,000,000 CFU) of Geobacillus stearothermophilus before sterilization cycles. As a more specific example, the backstop and barrel portions of the prefilled syringes were spiked with the 1-6×10^6 CFU of Geobacillus stearothermophilus. As used herein, the term “CFU” refers to “Colony-Forming Unit”, which is a unit used to estimate the number of viable bacteria or fungal cells in a sample (where “viable” is the ability to multiply via binary fission under controlled conditions). Geobacillus stearothermophilus (previously Bacillus stearothermophilus) is a rod-shaped, gram-positive bacterium and a member of the division Firmicutes. The bacterium is a thermophile and is widely distributed in soil, hot springs, ocean sediment, and is a potential cause of spoilage in food products. The spiked pre-filled syringes were then sterilized using various sterilization parameters to measure the lethality of the sterilization process to evaluate the Sterility Assurance Level (SAL). The pre-filled syringes were spiked with biological indicators or direct inoculation, as is discussed in more detail below.
For each recipe number, five samples (or at least 5 test locations on one or more samples) were tested. […] For example, the target lethality for this test was a Sterility Assurance Level (SAL) of […]. In other words, the target lethality for this test was 6 logs reduction in the number of bacteria present (before sterilization vs. after sterilization). As a more specific example, for Recipe Number 1, one of the five samples tested reached this target lethality for the backstop area (Col. “Spiked Backstop”, row corresponding with Recipe Number 1), but all five of the samples tested reached this target lethality for the barrel area (Col. “Spiked Barrel”, row corresponding with Recipe Number 1). It should be noted that the spiked backstop test results for Recipe Nos. 1-4 (utilizing the backstop 20 shown in FIGS. 2A-2H) were tested via direct inoculation whereas the spiked backstop test results for Recipe Nos. 5-14 (utilizing alternative backstop 120) were tested via biological indicators. It also should be noted that “-” symbols indicate that no data is reported for those parameters/samples. The testing method variance aside, the samples tested utilizing backstops with protrusions achieved target lethality at a much higher rate than the samples utilizing the backstop without protrusions. As discussed above, the ridges minimize and/or prevent occluded spaces and instead permit the sterilization agent to completely or substantially reach various components of the pre-filled syringe, particularly the backstop and flange areas.

In the case of [O]N=O [NO2, Nitrogen Dioxide], the “Spiked Barrel: samples out of 5 reaching target lethality (6 logs reduction)” value (“Spiked Barrel: samples out … (6 logs reduction)” below) (Recipe 1: 100 Torr, NO2 10 mg/L, 75% RH, dwell 10 min, 2 pulses, 24 aerations, PFS with backstop 20) is reported as 5/5, the “Spiked Backstop: samples out of 5 reaching target lethality (6 logs reduction)” value (shortened to “Spiked Backstop … (6 logs reduction)”) (Recipe 1: 100 Torr, NO2 10 mg/L, 75% RH, dwell 10 min, 2 pulses, 24 aerations, backstop 20, direct inoculation) is reported as 1/5 and the “Spiked Barrel: samples out … (6 logs reduction)” value (Recipe 2: 300 Torr, NO2 10 mg/L, 75% RH, dwell 10 min, 2 pulses, 35 aerations, PFS with backstop 20) is reported as 5/5. For the same compound, the “Spiked Backstop … (6 logs reduction)” value (Recipe 2: 300 Torr, NO2 10 mg/L, 75% RH, dwell 10 min, 2 pulses, 35 aerations, backstop 20, direct inoculation) was 0/5, the “Spiked Barrel: samples out … (6 logs reduction)” value (Recipe 3: 100 Torr, NO2 20 mg/L, 80% RH, dwell 20 min, 4 pulses, 24 aerations, PFS with backstop 20) was 5/5 and the “Spiked Backstop … (6 logs reduction)” value (Recipe 3: 100 Torr, NO2 20 mg/L, 80% RH, dwell 20 min, 4 pulses, 24 aerations, backstop 20, direct inoculation) was 0/5. The “Spiked Barrel: samples out … (6 logs reduction)” value (Recipe 4: 20 Torr, NO2 10 mg/L, 80% RH, dwell 10 min, 4 pulses, 35 aerations, PFS with backstop 20) was 5/5, the “Spiked Backstop … (6 logs reduction)” value (Recipe 4: 20 Torr, NO2 10 mg/L, 80% RH, dwell 10 min, 4 pulses, 35 aerations, backstop 20, direct inoculation) was 2/5 and the “Spiked Barrel: samples out … (6 logs reduction)” value (Recipe 5: 20 Torr, NO2 10 mg/L, 75% RH, dwell 10 min, 8 pulses, 28 aerations, PFS with alternative backstops) was 5/5. The “Spiked Backstop … (6 logs reduction)” value (Recipe 5: 20 Torr, NO2 10 mg/L, 75% RH, dwell 10 min, 8 pulses, 28 aerations, alternative backstops, biological indicators) was 5/5, the “Spiked Backstop … (6 logs reduction)” value (Recipe 6: 20 Torr, NO2 20 mg/L, 80% RH, dwell 20 min, 4 pulses, 24 aerations, alternative backstops, biological indicators) was 5/5 and the “Spiked Backstop … (6 logs reduction)” value (Recipe 7: 20 Torr, NO2 10 mg/L, 80% RH, dwell 20 min, 4 pulses, 24 aerations, alternative backstops, biological indicators) was 5/5. For the same compound, the “Spiked Backstop … (6 logs reduction)” value (Recipe 8: 20 Torr, NO2 10 mg/L, 80% RH, dwell 10 min, 4 pulses, 24 aerations, alternative backstops, biological indicators) was 5/5, the “Spiked Backstop … (6 logs reduction)” value (Recipe 9: 20 Torr, NO2 10 mg/L, 80% RH, dwell 10 min, 2 pulses, 24 aerations, alternative backstops, biological indicators) was 5/5 and the “Spiked Barrel: samples out … (6 logs reduction)” value (Recipe 10: 20 Torr, NO2 10 mg/L, 80% RH, dwell 10 min, 1 pulse, 24 aerations, PFS with alternative backstops) was 5/5. For the same compound, the “Spiked Backstop … (6 logs reduction)” value (Recipe 10: 20 Torr, NO2 10 mg/L, 80% RH, dwell 10 min, 1 pulse, 24 aerations, alternative backstops, biological indicators) was 5/5, the “Spiked Barrel: samples out … (6 logs reduction)” value (Recipe 11: 20 Torr, NO2 5 mg/L, 80% RH, dwell 10 min, 1 pulse, 24 aerations, PFS with alternative backstops) was 4/5 and the “Spiked Backstop … (6 logs reduction)” value (Recipe 11: 20 Torr, NO2 5 mg/L, 80% RH, dwell 10 min, 1 pulse, 24 aerations, alternative backstops, biological indicators) was 5/5. The “Spiked Barrel: samples out … (6 logs reduction)” value (Recipe 12: 20 Torr, NO2 5 mg/L, 80% RH, dwell 10 min, 2 pulses, 24 aerations, PFS with alternative backstops) was 5/5, the “Spiked Backstop … (6 logs reduction)” value (Recipe 12: 20 Torr, NO2 5 mg/L, 80% RH, dwell 10 min, 2 pulses, 24 aerations, alternative backstops, biological indicators) was 5/5 and the “Spiked Barrel: samples out … (6 logs reduction)” value (Recipe 13: 20 Torr, NO2 5 mg/L, 80% RH, dwell 5 min, 2 pulses, 24 aerations, PFS with alternative backstops) was 5/5. The “Spiked Backstop … (6 logs reduction)” value (Recipe 13: 20 Torr, NO2 5 mg/L, 80% RH, dwell 5 min, 2 pulses, 24 aerations, alternative backstops, biological indicators) was 5/5, the “Spiked Barrel: samples out … (6 logs reduction)” value (Recipe 15: 500 Torr, NO2 5 mg/L, 80% RH, dwell 5 min, 2 pulses, 70 aerations, PFS with alternative backstops) was 5/5 and the “Spiked Backstop … (6 logs reduction)” value (Recipe 15: 500 Torr, NO2 5 mg/L, 80% RH, dwell 5 min, 2 pulses, 70 aerations, alternative backstops, biological indicators) was 5/5.
